These results are taken from PMC2363627 (British Journal of Cancer, 2001).

The structures appear in SMILES notation. Where “and” joins values, the source holds several entries; their conditions need not be identical. Equal entries are not always repeated. Entries after “also recorded” stand apart in the source; their conditions may differ.

One may read the AUC as the area under the concentration-time curve, a measure of exposure. Higher therefore signals more exposure. One may read the Cmax as the maximum level reached in the sampled fluid or tissue.

Data set [1] in a line: Plasma pharmacokinetics of oral paclitaxel 120 mg/m2 combined with 15 mg kg-1 cyclosporin A in patients (previous study at the Institute). It is filed as in vivo, human. Particulars: for mean AUCt of paclitaxel metabolite: after oral paclitaxel + CsA, n = 3, mean SD, not published before. The text has this:
Furthermore, oral administration may enable development of chronic treatment schedules resulting in sustained plasma concentrations above a pharmacological relevant threshold level. […] PATIENTS AND METHODS Patient population Patients with a histologically confirmed cancer refractory to current therapies were eligible for the study. Previous radiotherapy or chemotherapy other than taxoid therapy was allowed, provided that the last treatment was at least four weeks prior to study entry and any resulting toxicities were resolved. […] Patients were not eligible if they suffered from uncontrolled infec- tious disease, neurologic disease, bowel obstruction or sympto- matic brain metastases. Other exclusion criteria were concomitant use of known P-gp inhibitors and chronic use of H2-receptor antagonists or proton pump inhibitors. The study protocol was approved by the Medical Ethics Committee of the Institute and all patients gave written informed consent. […] The oral and i.v. course were randomized. […] Patient evaluation Pretreatment evaluation included a complete medical history and complete physical examination. Before each course, an interim history including concomitant medications taken, toxicities and performance status were registered and a physical examination was performed. Haematology was checked twice weekly after course 1 and 2 and weekly after subsequent courses. Blood chemistries including liver and renal function, serum electrolytes, total protein and albumin and glucose levels were checked weekly. All toxicities observed were graded according to the National Cancer Institute Common Toxicity Criteria (NCI CTC) (National Cancer Institute, 1988). Dose-limiting toxicities (DLT) were defined as grade 4 granulocytopenia of a duration of > 5 days, grade 4 thrombocytopenia of any duration or any grade 3/4 non- haematological toxicity except untreated nausea and vomiting. Tumour measurements were performed every other cycle, but initially after the first 2 i.v. courses. Responses were evaluated according to the WHO criteria (World Health Organization, 1979). Sample collection and analysis Blood samples for pharmacokinetic analyses were collected during course 1 and course 2. […] Blood samples were centrifuged, plasma was separated and samples were immediately stored at -20C until analysis. […] Blood samples were centrifuged at 4C, plasma was separated and samples were imme- diately stored at -20C until analysis. […] Pharmacokinetic analysis Non-compartmental pharmacokinetic methods were applied to process the results (Gibaldi and Perrier, 1982). […] The time above the threshold concentrations of 0.05 M and 0.1 M (T > 0.05 M, T > 0.1 M) was determined using linear interpola- tion. […] Statistical analysis of the data was performed using the nonparametric Mann-Whitney U-test. […]

Data set [2] is described as follows: Plasma pharmacokinetics of oral paclitaxel 120 mg/m2 combined with 1000 mg oral GF120918 in cancer patients (HPLC, non-compartmental). The following applies: for mean AUCt of paclitaxel metabolite: after oral paclitaxel 120 mg/m2 + GF120918, n = 5, mean SD. The text has this: (§1) Furthermore, oral administration may enable development of chronic treatment schedules resulting in sustained plasma concentrations above a pharmacological relevant threshold level. […] PATIENTS AND METHODS Patient population Patients with a histologically confirmed cancer refractory to current therapies were eligible for the study. Previous radiotherapy or chemotherapy other than taxoid therapy was allowed, provided that the last treatment was at least four weeks prior to study entry and any resulting toxicities were resolved. […] Patients were not eligible if they suffered from uncontrolled infec- tious disease, neurologic disease, bowel obstruction or sympto- matic brain metastases. Other exclusion criteria were concomitant use of known P-gp inhibitors and chronic use of H2-receptor antagonists or proton pump inhibitors. The study protocol was approved by the Medical Ethics Committee of the Institute and all patients gave written informed consent. […] The oral and i.v. course were randomized. […] Patient evaluation Pretreatment evaluation included a complete medical history and complete physical examination. Before each course, an interim history including concomitant medications taken, toxicities and performance status were registered and a physical examination was performed. Haematology was checked twice weekly after course 1 and 2 and weekly after subsequent courses. Blood chemistries including liver and renal function, serum electrolytes, total protein and albumin and glucose levels were checked weekly. All toxicities observed were graded according to the National Cancer Institute Common Toxicity Criteria (NCI CTC) (National Cancer Institute, 1988). Dose-limiting toxicities (DLT) were defined as grade 4 granulocytopenia of a duration of > 5 days, grade 4 thrombocytopenia of any duration or any grade 3/4 non- haematological toxicity except untreated nausea and vomiting. Tumour measurements were performed every other cycle, but initially after the first 2 i.v. courses. Responses were evaluated according to the WHO criteria (World Health Organization, 1979). Sample collection and analysis Blood samples for pharmacokinetic analyses were collected during course 1 and course 2. […] Blood samples were centrifuged, plasma was separated and samples were immediately stored at -20C until analysis. […] Blood samples were centrifuged at 4C, plasma was separated and samples were imme- diately stored at -20C until analysis. […] Pharmacokinetic analysis Non-compartmental pharmacokinetic methods were applied to process the results (Gibaldi and Perrier, 1982). […] The time above the threshold concentrations of 0.05 M and 0.1 M (T > 0.05 M, T > 0.1 M) was determined using linear interpola- tion. […] Statistical analysis of the data was performed using the nonparametric Mann-Whitney U-test. The a priori level of signifi- cance was P = 0.05.

In data set [3] the test system is P-gp. Details: method as in Hyafil et al, 1993. The following applies: ref Hyafil et al, 1993; cited from earlier work.
The nature of data set [4]: Plasma pharmacokinetics of GF120918 after a single 1000 mg oral dose in cancer patients (HPLC). Format: in vivo, human. Particulars: 1000 mg oral GF120918; mean SD. From the text: (§2) Furthermore, oral administration may enable development of chronic treatment schedules resulting in sustained plasma concentrations above a pharmacological relevant threshold level. […] PATIENTS AND METHODS Patient population Patients with a histologically confirmed cancer refractory to current therapies were eligible for the study. Previous radiotherapy or chemotherapy other than taxoid therapy was allowed, provided that the last treatment was at least four weeks prior to study entry and any resulting toxicities were resolved. […] Patients were not eligible if they suffered from uncontrolled infec- tious disease, neurologic disease, bowel obstruction or sympto- matic brain metastases. Other exclusion criteria were concomitant use of known P-gp inhibitors and chronic use of H2-receptor antagonists or proton pump inhibitors. The study protocol was approved by the Medical Ethics Committee of the Institute and all patients gave written informed consent. […] The oral and i.v. course were randomized. […] Patient evaluation Pretreatment evaluation included a complete medical history and complete physical examination. […] Responses were evaluated according to the WHO criteria (World Health Organization, 1979). […] The time above the threshold concentrations of 0.05 M and 0.1 M (T > 0.05 M, T > 0.1 M) was determined using linear interpola- tion. […]

Data set [5] is described as follows: Toxicity in patients graded by NCI Common Toxicity Criteria. Particulars: one course oral paclitaxel 120 mg/m2 + 1000 mg GF120918.
From the text: as §2

Data set [6] is described as follows: Plasma pharmacokinetics of i.v. paclitaxel 175 mg/m2 as 3-hour infusion in cancer patients (limited sampling model). Format: in vivo, human. The following applies: for AUC: human, plasma, iv.
From the text: as §1

In data set [7] the test system is histologically confirmed cancer refractory to current therapies. Kind of data set: Tumour response according to WHO criteria. It is filed as in vivo, human. Particulars: six patients; one oral course + GF120918, subsequent i.v. paclitaxel courses.
From the text: as §2

On the set-up of data set [8]: method as in Malingre et al, 2000. Particulars: ref Malingre et al, 2000, cited from earlier work.
The conditions of data set [9]: cited from earlier work.
[10] abbreviates: individual patients 1-6, oral 120 mg/m2 + GF120918 1000 mg.

Regarding `CC(=O)O[C@H]1C(=O)[C@@]2(C)[C@H]([C@H](OC(=O)c3ccccc3)[C@]3(O)C[C@H](OC(=O)[C@H](O)[C@@H](NC(=O)c4ccccc4)c4ccc(O)cc4)C(C)=C1C3(C)C)[C@]1(OC(C)=O)CO[C@@H]1C[C@@H]2O` [3p-hydroxypaclitaxel], the mean AUCt of paclitaxel metabolite is 0.48 µM·h in data set [1] and 0.36 µM·h in [2].

On to `CC(=O)O[C@H]1C(=O)[C@@]2(C)[C@H]([C@H](OC(=O)c3ccccc3)[C@]3(O)C[C@H](OC(=O)[C@H](O)[C@@H](NC(=O)c4ccccc4)c4ccc(O)cc4)C(C)=C1C3(C)C)[C@]1(OC(C)=O)CO[C@@H]1[C@@H](O)[C@@H]2O` [6,3p-dihydroxypaclitaxel], for which the values for the mean AUCt of paclitaxel metabolite in data set [1] and in data set [2] were 0.88 µM·h and 0.24 µM·h, respectively.

As for `CC(=O)O[C@H]1C(=O)[C@@]2(C)[C@H]([C@H](OC(=O)c3ccccc3)[C@]3(O)C[C@H](OC(=O)[C@H](O)[C@@H](NC(=O)c4ccccc4)c4ccccc4)C(C)=C1C3(C)C)[C@]1(OC(C)=O)CO[C@@H]1[C@@H](O)[C@@H]2O` [6-hydroxypaclitaxel], the mean AUCt of paclitaxel metabolite was 1.69 µM·h in [1] and 0.4 µM·h in data set [2]. Moreover, the entries for the “AUCt ratio 6-hydroxypaclitaxel/3p-hydroxypaclitaxel” value in [1] (oral paclitaxel + CsA (1.69/0.48)) and in [2] (oral paclitaxel + GF120918 (0.40/0.36)) were 3.5 and 1.1, respectively.

For the compound `COc1cc2c(cc1OC)CN(CCc1ccc(NC(=O)c3cccc4c(=O)c5cccc(OC)c5[nH]c34)cc1)CC2` [GF120918], in data set [3], the “concentration at which active in in vitro models of P-gp inhibition” value is “around 20 nM”. The “mean maximum concentration of GF120918” value in data set [4] is listed as 434 267 ng ml-1.

On to `CC(=O)O[C@H]1C(=O)[C@@]2(C)[C@H]([C@H](OC(=O)c3ccccc3)[C@]3(O)C[C@H](OC(=O)[C@H](O)[C@@H](NC(=O)c4ccccc4)c4ccccc4)C(C)=C1C3(C)C)[C@]1(OC(C)=O)CO[C@@H]1C[C@@H]2O` [paclitaxel], for which the “tolerability of the oral combination of paclitaxel with GF120918” value in [5] is listed as “well tolerated; also recorded: very well tolerated”. The AUC in data set [6] (175 mg/m2, AUC, i.v. paclitaxel, individual patients 1-6, 175 mg/m2, 3-hour infusion) was 18.6 µM·h; in data set [6] (175 mg/m2, AUC, i.v. paclitaxel, mean SD, n = 6, 175 mg/m2, 3-hour infusion), 15.9 µM·h; in data set [6] (175 mg/m2, mean AUC of paclitaxel, i.v. paclitaxel 175 mg/m2, 3-hour infusion, mean ± SD) it was 15.9 µM·h. The “T > 0.1 µM, i.v. paclitaxel” value in data set [6] (individual patients 1-6, 175 mg/m2, 3-hour infusion) is 22.3 h and 12.1 h and 20.9 h and 13.8 h and 16.6 h and 13.9 h; in data set [6] (mean, n = 6 (SD 4.2 printed in separate line), 175 mg/m2, 3-hour infusion), 16.6 h. Further, the “T > 0.1 µM, oral paclitaxel (time above 0.1 µM)” value in [2] (setting [10]) was 8.8 h and 15.3 h and 9.6 h and 2.6 h and 4.2 h and 4.3 h. Besides, in [2] (setting [10]), the “T > 0.05 M, oral paclitaxel (time above 0.05 M)” value was 15.1 h and 25.0 h and 23.9 h and 3.9 h and 6.1 h and 6.7 h. For the same compound, the tumour responses result in data set [7] was “no tumour responses were observed”. Besides, the “mean AUC of paclitaxel” value in data set [8] (oral paclitaxel 120 mg/m2 + CsA, previously performed study, mean ± SD) is 2.55 ± 2.29 µM·h. Also, in data set [8] (read-out: Cmax, oral paclitaxel, oral 120 mg/m2 + 15 mg kg-1 cyclosporin A, n = 3, mean SD), the highest concentration (Cmax) is 310 nM. In addition, the “oral bioavailability of paclitaxel” value in data set [9] (background statement, no P-gp blocker, no reference given) was less than 10%. For the same compound, the “increase in oral bioavailability of paclitaxel by co-administration of CsA” value in [9] (cancer patients, oral paclitaxel + CsA, ref Meerum Terwogt et al, 1998, 1999) is recorded as “at least 7 fold”. The “bioavailability of single agent oral paclitaxel” value in data set [9] (oral 60 mg/m2 without P-gp blocker, vs i.v. 175 mg/m2, ref Meerum Terwogt et al, 1998, 1999) was 4%. Moreover, the “apparent bioavailability of oral paclitaxel as a single agent” value in [9] (using i.v. paclitaxel data at 100 mg/m2 and 125 mg/m2 (Huizing et al, 1997), ref Meerum Terwogt et al, 1999) is 6%.
